In patent US4904672A, “Derivatives of 3-hydroxyazabenzo[b]thiophene useful as 5-lipoxygenase inhibitors” (Merck & Co., Inc., priority 1988, dated 1990):

Tested on: Brewer's yeast-induced hyperalgesia (pain response)
Experiment: Brewer's Yeast Hyperalgesia Assay in the rat
Format: in vivo, rat (female Sprague-Dawley)
Settings: 3 mg/kg p.o.
Protocol: In this assay, which is sensitive to inhibition by lipoxygenase and cyclooxygenase inhibitors, compounds of formula I reduced the pain response induced by Brewer's yeast (Table 1a).
Groups of 10 female Sprague-Dawley rats, weighing 35-50 grams (Charles River Breeding Laboratories), were fasted overnight prior to testing. For each animal, 0.1 ml of the edema-inducing Brewer's yeast suspension (5% homogenate in physiological saline) was injected into the right hindpaw. Pain threshold was measured by applying pressure to the plantar surface of the hindpaw by means of a compressed air driven piston with a 2 mm. tip. Testing was carried out 3, 4, and 5 hours after the yeast injection. Compounds, prepared as homogenates in either 1% methylcellulose or aqueous vehicle, were administered orally 60 minutes before testing. A group of vehicle treated control animals was included in each experiment. Squeak pressure thresholds were measured and recorded for the compound and vehicle-treated groups of rats 3, 4, and 5 hours after administration of the Brewer's yeast (60 minutes after compound treatment). The estimation of analgesia was as follows: 1. the mean response pressure for the daily vehicle control group in the normal and inflammed foot was calculated; 2. for each compound treatment group, the number of animals with response pressures equal to or greater than 25 mm Hg was noted. These animals were considered to be analgesic.

For `CC(=O)Oc1c(-c2ccc(F)cc2)sc2ncccc12` [R=(CO)CH3, X1=H, X2=p-F, 7-aza-3-acetyloxy-2-(4-fluorophenyl)-benzo[b]thiophene], the “% Inhibition (yeast hyperalgesia)” value was 70%.
